From patent US20110245284A1, “Alkoxy- and Alkylthio-Substituted Anilinopyrimidines” (Bayer CropScience AG, priority 2008, published 2011)

system: Leptosphaeria nodorum; test: Leptosphaeria nodorum test (wheat) / protective; assay type: in vivo; conditions: Parastagonospora nodorum, active compound concentration 500 ppm, evaluation 7-9 days after inoculation, read-out: efficacy
Description: Thereafter, the plants are placed in a greenhouse at 90% relative atmospheric humidity and a temperature of 22° C.

Structure (SMILES)	pest or weed control at 500 ppm [%]
COCC(C)Oc1ccc(Nc2ncc(Br)c(NC3CC3)n2)cc1 (stereo not drawn) [Example 1, 5-Bromo-N^4-cyclopropyl-N^2-{4-[(1-methoxypropan-2-yl)oxy]phenyl}pyrimidine-2,4-diamine]	≥ 70
CCSC(C)c1cccc(Nc2ncc(Br)c(NC3CCC3)n2)c1 (stereo not drawn) [Example 12]	≥ 70
COC(C)c1cccc(Nc2ncc(Cl)c(NC3CCC3)n2)c1 (stereo not drawn) [Example 15]	≥ 70
COC(C)c1cccc(Nc2ncc(Br)c(NC3CCC3)n2)c1 (stereo not drawn) [Example 20]	≥ 70
COCc1cccc(Nc2ncc(C(F)(F)F)c(NC3CCC3)n2)c1 [Example 24]	≥ 70
CCS(=O)(=O)c1cccc(Nc2ncc(Cl)c(NC3CCC3)n2)c1 [Example 27, 5-chloro-N^4-cyclobutyl-N^2-[3-(ethylsulphonyl)phenyl]pyrimidine-2,4-diamine]	≥ 70
CCCSc1cccc(Nc2ncc(Br)c(NC3CCC3)n2)c1 [Example 57]	≥ 70
COC(C)(C)c1cccc(Nc2ncc(Cl)c(NC3CC3)n2)c1 [Example 59]	≥ 70
COCCc1cccc(Nc2ncc(Cl)c(NC3CC3)n2)c1 [Example 60]	≥ 70

system: not listed separately; test: logP by LC-MS on reversed-phase columns (C 18), method [b], acidic range pH 2.7; assay type: physicochemical; conditions: pH 2.7, log p
Description: (§1) The logP values were determined in accordance with EEC Directive 79/831 Annex V.A8 by HPLC (High Performance Liquid Chromatography) on reversed-phase columns (C 18), using the methods below:
[b] The LC-MS determination in the acidic range is carried out at pH 2.7 using the mobile phases 0.1% aqueous formic acid and acetonitrile (contains 0.1% formic acid), linear gradient from 10% acetonitrile to 95% acetonitrile.

Structure (SMILES)	chromatographic logP
COCC(C)Oc1ccc(Nc2ncc(Br)c(NC3CC3)n2)cc1 (stereo not drawn) [Example 1, 5-Bromo-N^4-cyclopropyl-N^2-{4-[(1-methoxypropan-2-yl)oxy]phenyl}pyrimidine-2,4-diamine]	1.83
CCSC(C)c1cccc(Nc2ncc(Br)c(NC3CCC3)n2)c1 (stereo not drawn) [Example 12]	3.49
COC(C)c1cccc(Nc2ncc(Cl)c(NC3CCC3)n2)c1 (stereo not drawn) [Example 15]	2.27
COC(C)c1cccc(Nc2ncc(Br)c(NC3CCC3)n2)c1 (stereo not drawn) [Example 20]	2.46
COCc1cccc(Nc2ncc(C(F)(F)F)c(NC3CCC3)n2)c1 [Example 24]	3.3
CCS(=O)(=O)c1cccc(Nc2ncc(Cl)c(NC3CCC3)n2)c1 [Example 27, 5-chloro-N^4-cyclobutyl-N^2-[3-(ethylsulphonyl)phenyl]pyrimidine-2,4-diamine]	2.21
CCCSc1cccc(Nc2ncc(Br)c(NC3CCC3)n2)c1 [Example 57]	3.96
COC(C)(C)c1cccc(Nc2ncc(Cl)c(NC3CC3)n2)c1 [Example 59]	2.16
COCCc1cccc(Nc2ncc(Cl)c(NC3CC3)n2)c1 [Example 60]	2.41

system: not listed separately; test: logP by HPLC on reversed-phase columns (C 18), method [a], acidic range pH 2.3; assay type: physicochemical; conditions: pH 2.3, logP (pH2.3)
Description: as §1
[a] The determination is carried out in the acidic range at pH 2.3 using the mobile phases 0.1% aqueous phosphoric acid and acetonitrile, linear gradient from 10% acetonitrile to 95% acetonitrile.

Structure (SMILES)	chromatographic logP
COCC(C)Oc1ccc(Nc2ncc(Br)c(NC3CC3)n2)cc1 (stereo not drawn) [Example 1, 5-Bromo-N^4-cyclopropyl-N^2-{4-[(1-methoxypropan-2-yl)oxy]phenyl}pyrimidine-2,4-diamine]	1.83
CCS(=O)(=O)c1cccc(Nc2ncc(Cl)c(NC3CCC3)n2)c1 [Example 27, 5-chloro-N^4-cyclobutyl-N^2-[3-(ethylsulphonyl)phenyl]pyrimidine-2,4-diamine]	2.21

system: not listed separately; test: logP by LC-MS on reversed-phase columns (C 18), method [c], neutral range pH 7.8; assay type: physicochemical; conditions: pH 7.8
Description: as §1
[c] The LC-MS determination in the neutral range is carried out at pH 7.8 using the mobile phases 0.001 molar aqueous ammonium bicarbonate solution and acetonitrile, linear gradient from 10% acetonitrile to 95% acetonitrile.

Structure (SMILES)	chromatographic logP
COC(C)(C)c1cccc(Nc2ncc(Cl)c(NC3CC3)n2)c1 [Example 59]	3.5

system: Pyrenophora teres; test: Pyrenophora teres test (barley) / protective; assay type: in vivo; conditions: 192 h, active compound concentration 500 ppm, evaluation 8 days after inoculation, read-out: efficacy
Description: After the spray coating has dried on, the plants are sprayed with a spore suspension of Pyrenophora teres. The plants remain in an incubation cabinet for 48 hours at 20° C. and 100% relative atmospheric humidity.

Structure (SMILES)	pest or weed control at 500 ppm [%]
CCSC(C)c1cccc(Nc2ncc(Br)c(NC3CCC3)n2)c1 (stereo not drawn) [Example 12]	≥ 70
COC(C)c1cccc(Nc2ncc(Cl)c(NC3CCC3)n2)c1 (stereo not drawn) [Example 15]	≥ 70
COC(C)c1cccc(Nc2ncc(Br)c(NC3CCC3)n2)c1 (stereo not drawn) [Example 20]	≥ 70
COCc1cccc(Nc2ncc(C(F)(F)F)c(NC3CCC3)n2)c1 [Example 24]	≥ 70
CCCSc1cccc(Nc2ncc(Br)c(NC3CCC3)n2)c1 [Example 57]	≥ 70
COC(C)(C)c1cccc(Nc2ncc(Cl)c(NC3CC3)n2)c1 [Example 59]	≥ 70
COCCc1cccc(Nc2ncc(Cl)c(NC3CC3)n2)c1 [Example 60]	≥ 70

system: Rhizoctonia solani; test: Rhizoctonia test (rice) / protective; assay type: in vivo; conditions: 96 h, active compound concentration 250 ppm, evaluation 4 days after inoculation, read-out: efficacy

Structure (SMILES)	pest or weed control at 250 ppm [%]
COC(C)c1cccc(Nc2ncc(Cl)c(NC3CCC3)n2)c1 (stereo not drawn) [Example 15]	≥ 80
COC(C)c1cccc(Nc2ncc(Br)c(NC3CCC3)n2)c1 (stereo not drawn) [Example 20]	≥ 80
COCc1cccc(Nc2ncc(C(F)(F)F)c(NC3CCC3)n2)c1 [Example 24]	≥ 80
CCCSc1cccc(Nc2ncc(Br)c(NC3CCC3)n2)c1 [Example 57]	≥ 80
COC(C)(C)c1cccc(Nc2ncc(Cl)c(NC3CC3)n2)c1 [Example 59]	≥ 80
COCCc1cccc(Nc2ncc(Cl)c(NC3CC3)n2)c1 [Example 60]	≥ 80

system: Pyricularia oryzae; test: whole plant or invertebrate; assay type: in vivo; conditions: 120 h, read-out: efficacy

Structure (SMILES)	pest or weed control at 250 ppm [%]
COC(C)c1cccc(Nc2ncc(Cl)c(NC3CCC3)n2)c1 (stereo not drawn) [Example 15]	≥ 80
COC(C)c1cccc(Nc2ncc(Br)c(NC3CCC3)n2)c1 (stereo not drawn) [Example 20]	≥ 80
COCc1cccc(Nc2ncc(C(F)(F)F)c(NC3CCC3)n2)c1 [Example 24]	≥ 80
CCS(=O)(=O)c1cccc(Nc2ncc(Cl)c(NC3CCC3)n2)c1 [Example 27, 5-chloro-N^4-cyclobutyl-N^2-[3-(ethylsulphonyl)phenyl]pyrimidine-2,4-diamine]	≥ 80
CCCSc1cccc(Nc2ncc(Br)c(NC3CCC3)n2)c1 [Example 57]	≥ 80
COC(C)(C)c1cccc(Nc2ncc(Cl)c(NC3CC3)n2)c1 [Example 59]	≥ 80
COCCc1cccc(Nc2ncc(Cl)c(NC3CC3)n2)c1 [Example 60]	≥ 80

system: Cochliobolus miyabeanus; test: Cochliobolus test (rice) / protective; conditions: Bipolaris oryzae, in Oryza sativa, 96 h, read-out: efficacy
Description: Cochliobolus Test (Rice)/Protective • Solvent: 28.5 parts by weight of acetone • Emulsifier: 1.5 parts by weight of alkylaryl polyglycol ether
1 day after the treatment, the plants are inoculated with an aqueous spore suspension of Cochliobolus miyabeanus. The plants are then placed in a greenhouse at 100% relative atmospheric humidity and 25° C.
Evaluation is carried out 4 days after the inoculation.

Structure (SMILES)	pest or weed control at 250 ppm [%]
COC(C)c1cccc(Nc2ncc(Cl)c(NC3CCC3)n2)c1 (stereo not drawn) [Example 15]	≥ 80
COC(C)c1cccc(Nc2ncc(Br)c(NC3CCC3)n2)c1 (stereo not drawn) [Example 20]	≥ 80
CCS(=O)(=O)c1cccc(Nc2ncc(Cl)c(NC3CCC3)n2)c1 [Example 27, 5-chloro-N^4-cyclobutyl-N^2-[3-(ethylsulphonyl)phenyl]pyrimidine-2,4-diamine]	≥ 80
CCCSc1cccc(Nc2ncc(Br)c(NC3CCC3)n2)c1 [Example 57]	≥ 80
COC(C)(C)c1cccc(Nc2ncc(Cl)c(NC3CC3)n2)c1 [Example 59]	≥ 80
COCCc1cccc(Nc2ncc(Cl)c(NC3CC3)n2)c1 [Example 60]	≥ 80

system: Alternaria solani; test: Alternaria test (tomato) / protective; assay type: in vivo; conditions: 72 h, active compound concentration 100 ppm, evaluation 3 days after inoculation, read-out: efficacy
Description: The plants are then placed in an incubation cabinet at about 20° C. and 100% relative atmospheric humidity.

Structure (SMILES)	pest or weed control at 100 ppm [%]
CCSC(C)c1cccc(Nc2ncc(Br)c(NC3CCC3)n2)c1 (stereo not drawn) [Example 12]	≥ 70
COC(C)c1cccc(Nc2ncc(Cl)c(NC3CCC3)n2)c1 (stereo not drawn) [Example 15]	≥ 70
COC(C)c1cccc(Nc2ncc(Br)c(NC3CCC3)n2)c1 (stereo not drawn) [Example 20]	≥ 70
CCS(=O)(=O)c1cccc(Nc2ncc(Cl)c(NC3CCC3)n2)c1 [Example 27, 5-chloro-N^4-cyclobutyl-N^2-[3-(ethylsulphonyl)phenyl]pyrimidine-2,4-diamine]	≥ 70
CCCSc1cccc(Nc2ncc(Br)c(NC3CCC3)n2)c1 [Example 57]	≥ 70
COC(C)(C)c1cccc(Nc2ncc(Cl)c(NC3CC3)n2)c1 [Example 59]	≥ 70
COCCc1cccc(Nc2ncc(Cl)c(NC3CC3)n2)c1 [Example 60]	≥ 70

system: Sphaerotheca fuliginea; test: Sphaerotheca test (cucumber) / protective; assay type: in vivo; conditions: Podosphaera fuliginea, 168 h, active compound concentration 500 ppm, evaluation 7 days after inoculation, read-out: efficacy
Description: The plants are subsequently placed in a greenhouse at 70% relative atmospheric humidity and a temperature of 23° C.

Structure (SMILES)	pest or weed control at 500 ppm [%]
COC(C)c1cccc(Nc2ncc(Cl)c(NC3CCC3)n2)c1 (stereo not drawn) [Example 15]	≥ 70
CCS(=O)(=O)c1cccc(Nc2ncc(Cl)c(NC3CCC3)n2)c1 [Example 27, 5-chloro-N^4-cyclobutyl-N^2-[3-(ethylsulphonyl)phenyl]pyrimidine-2,4-diamine]	≥ 70
CCCSc1cccc(Nc2ncc(Br)c(NC3CCC3)n2)c1 [Example 57]	≥ 70
COC(C)(C)c1cccc(Nc2ncc(Cl)c(NC3CC3)n2)c1 [Example 59]	≥ 70
COCCc1cccc(Nc2ncc(Cl)c(NC3CC3)n2)c1 [Example 60]	≥ 70

system: Fusarium proliferatum; test: Production of fumonisin FB1 by Fusarium proliferatum (microtitre plates; FB1 by HPLC-MS/MS, growth by OD620); assay type: cell-based; conditions: Fusarium proliferatum, 144 h, read-out: pI50 Fum

Structure (SMILES)	IC50 [µM]
COCC(C)Oc1ccc(Nc2ncc(Br)c(NC3CC3)n2)cc1 (stereo not drawn) [Example 1, 5-Bromo-N^4-cyclopropyl-N^2-{4-[(1-methoxypropan-2-yl)oxy]phenyl}pyrimidine-2,4-diamine]	1.26
CCSC(C)c1cccc(Nc2ncc(Br)c(NC3CCC3)n2)c1 (stereo not drawn) [Example 12]	10
COC(C)c1cccc(Nc2ncc(Br)c(NC3CCC3)n2)c1 (stereo not drawn) [Example 20]	0.794
COCc1cccc(Nc2ncc(C(F)(F)F)c(NC3CCC3)n2)c1 [Example 24]	2
CCS(=O)(=O)c1cccc(Nc2ncc(Cl)c(NC3CCC3)n2)c1 [Example 27, 5-chloro-N^4-cyclobutyl-N^2-[3-(ethylsulphonyl)phenyl]pyrimidine-2,4-diamine]	2
COC(C)(C)c1cccc(Nc2ncc(Cl)c(NC3CC3)n2)c1 [Example 59]	0.501
COCCc1cccc(Nc2ncc(Cl)c(NC3CC3)n2)c1 [Example 60]	0.631

same assay, conditions: Fusarium proliferatum, 144 h; growth, OD620 at the beginning and after 6 days; read-out: pI50 growth (converted)

Structure (SMILES)	IC50 [µM]
COCC(C)Oc1ccc(Nc2ncc(Br)c(NC3CC3)n2)cc1 (stereo not drawn) [Example 1, 5-Bromo-N^4-cyclopropyl-N^2-{4-[(1-methoxypropan-2-yl)oxy]phenyl}pyrimidine-2,4-diamine]	6.31
CCSC(C)c1cccc(Nc2ncc(Br)c(NC3CCC3)n2)c1 (stereo not drawn) [Example 12]	> 50.1
COC(C)c1cccc(Nc2ncc(Br)c(NC3CCC3)n2)c1 (stereo not drawn) [Example 20]	3.98
COCc1cccc(Nc2ncc(C(F)(F)F)c(NC3CCC3)n2)c1 [Example 24]	7.94
CCS(=O)(=O)c1cccc(Nc2ncc(Cl)c(NC3CCC3)n2)c1 [Example 27, 5-chloro-N^4-cyclobutyl-N^2-[3-(ethylsulphonyl)phenyl]pyrimidine-2,4-diamine]	20
COC(C)(C)c1cccc(Nc2ncc(Cl)c(NC3CC3)n2)c1 [Example 59]	3.16
COCCc1cccc(Nc2ncc(Cl)c(NC3CC3)n2)c1 [Example 60]	1.58

system: Venturia inaequalis; test: Venturia test (apple) / protective; assay type: in vivo; conditions: 240 h, active compound concentration 100 ppm, evaluation 10 days after inoculation, read-out: efficacy
Description: After the spray coating has dried on, the plants are inoculated with an aqueous conidia suspension of the apple scab pathogen Venturia inaequalis and then remain for 1 day in an incubation cabinet at about 20° C. and 100% relative atmospheric humidity.

Structure (SMILES)	pest or weed control at 100 ppm [%]
COCC(C)Oc1ccc(Nc2ncc(Br)c(NC3CC3)n2)cc1 (stereo not drawn) [Example 1, 5-Bromo-N^4-cyclopropyl-N^2-{4-[(1-methoxypropan-2-yl)oxy]phenyl}pyrimidine-2,4-diamine]	≥ 70
CCSC(C)c1cccc(Nc2ncc(Br)c(NC3CCC3)n2)c1 (stereo not drawn) [Example 12]	≥ 70
COC(C)c1cccc(Nc2ncc(Cl)c(NC3CCC3)n2)c1 (stereo not drawn) [Example 15]	≥ 70
COC(C)c1cccc(Nc2ncc(Br)c(NC3CCC3)n2)c1 (stereo not drawn) [Example 20]	≥ 70
CCS(=O)(=O)c1cccc(Nc2ncc(Cl)c(NC3CCC3)n2)c1 [Example 27, 5-chloro-N^4-cyclobutyl-N^2-[3-(ethylsulphonyl)phenyl]pyrimidine-2,4-diamine]	≥ 70
CCCSc1cccc(Nc2ncc(Br)c(NC3CCC3)n2)c1 [Example 57]	≥ 70
COC(C)(C)c1cccc(Nc2ncc(Cl)c(NC3CC3)n2)c1 [Example 59]	≥ 70
COCCc1cccc(Nc2ncc(Cl)c(NC3CC3)n2)c1 [Example 60]	≥ 70
